In data set [1] the target is T1, PD-1/PD-L1 complex (hPD-1, hPD-L1) (Homo sapiens, UniProt Q9NZQ7).
T1 construct: purchased Cis-Bio
As to the kind of experiment: HTRF assay of PD-1/PD-L1 complex disruption (Cis-Bio kit). In kind it is binding. The following applies: disruption of PD-1/PD-L1 complex, n = 2. The text has this: 4.3. Homogenous Time-Resolved Fluorescence
HTRF (Homogeneous Time Resolved Fluorescence) is a widely used technology for homogenous analyte measurement, particularly in high-throughput screening for drug target studies.
This technology combines fluorescence resonance energy transfer (FRET) with tim e-resolved measurement. In TR-FRET assays, a signal is generated when a donor and an acceptor molecule are in proximity (so-called FRET distance), transfer energy through FRET. Both fluorophores are attached to the monoclonal antibodies that are then specifically detecting particular tags on target proteins.
The commercially available Cis-Bio assay kit was used to perform the HTRF assay. Following the standard protocol, the measurement was carried out at a 20 µL final volume with a 5 nM concentration of hPD-1 and 50 nM concentration of hPD-L1 in the final formulation. Separate dilution […]
compounds. Analyte and detection reagents (anti-analyte conjugated donor and acceptor conjugated […]
plate was left for 1 h of incubation and it was read on an HTRF certified microplate reader Tecan Spark
20M. Output data were subjected to background subtraction on negative control (no PD-1), and normalization in correlation to the positive control (no inhibitor) and averaged. Resulting data points were then fitted with Hill’s equation to generate IC50 using Mathematica 12. […]
On the technique in general: Time-resolved FRET reads energy transfer from a long-lived donor to a nearby acceptor.

In data set [2] the target is T2, PD-1/PD-L1 immune checkpoint (Homo sapiens, UniProt Q9NZQ7).
T2 construct: host or cells: CHO/TCRAct/PD-L1 cells (PD-L1); Jurkat-ECs (PD-1)
Put plainly: cell-based PD-1/PD-L1 immune checkpoint blockade (ICB) assay, Jurkat-ECs with CHO/TCRAct/PD-L1 cells, luciferase readout. Particulars: for activation of Jurkat-ECs (fold induction): relative to DMSO-treated cells; for dose-dependent activation of Jurkat-ECs and toxicity: different concentrations, Figure S1. The method, then:
4.4. PD-1/PD-L1 immune checkpoint blockade (ICB) assay
For the in vitro analysis of the bioactivity of the molecules an Immune Checkpoint Blockade assay was performed 4 CHO/TCRAct/PD -L1 cells (Promega), overexpressing an artificial TCR - activator construct and PD -L1, were seeded on 96 -well white plates at the density of 10 000 cells/well.
The next day, the cells were overlaid with the effector Jurkat T cells (Jurkat -ECs, Promega, 20 000 cells/well), overexpressing PD -1 and containing construct assuring an NFAT -induced expression of luciferase, either in the presence of the indicated concentrations of the compounds with DMSO -only as a control (the concentration of DMSO was kept constant at 0.1%) or durvalumab (Selleckchem), as a positive control, with untreated cells as controls. Activation of the Jurkat -ECs, reflected by luciferase activity, was monitored by luminescence measurements after 6 h of incubation (37°C, 5%CO 2), and […]
20 min of additional incubation with the Bio-GloTM Assay reagent (Promega) at room temperature.
The luminescence was read on the Spark microplate reader (Tecan). The data is presented as fold induction of the luminescence signal relative to either untreated (for durvalumab) or DMSO-treated (for compounds) cells. Data points represent mean ± SD values from duplicates. […]
HCl, 0.25 mM oxidized glutathione, and 0.25 mM reduced glutathione. After the refolding step, the protein was dialyzed 3 times against buffer containing 10 mM Tris-HCl pH 8.0 and 20 mM NaCl. The final step of purification consisted of size exclusion chromatography using a Superdex 75 column and 10 mM Tris- HCl, 20 mM NaCl based buffer for crystallization or PBS buffer for NMR based experiments. The correctly folded state and purity of the PD-L1 protein were checked by NMR and […]
The freshly purified protein was concentrated to 5 mg/mL and then mixed in a 1:3 molar ratio with an excess of the 2f inhibitor, finally the solution was centrifuged for 1 minute at max speed. The clarified solution was then used for screening using multiple available commercial screens. The diffraction quality crystals were obtained from a sitting drop set up at room temperature with a buffer containing 27 % w/v PEG 3350, 0.1 M Bis-Tris propane, pH 7.0 and 0.2 M Lithium sulfate. Crystals were cryo-protected using glycerol and flash frozen with liquid nitrogen.
The X-ray diffraction data were collected at the BL13 - XALOC beamline at ALBA (Barcelona, Spain).6The data were indexed, integrated, and scaled using XDS, SCALE, and Aimless.
7–9 The initial phase estimates was obtained by molecular replacement calculated in Phaser using PDB:5C3T as a model.10 The refinement was performed using CCP4cloud11 and verified using Coot .12–14 The structure was deposited in the Protein Data Bank with accession number 8R6Q. The protein-ligand interactions were assessed using PLIP server15 and visualized using PyMol (The PyMOL Molecular Graphics System, Version 2.0 Schrödinger, LLC).
4.6. Crystal structure determination for compound 2a
X-ray diffraction data for single crystals of compound 2a was collected using XtalLAB Synergy-S four-circle diffractometer with a mirror monochromator and a microfocus CuKα radiation source (λ = 1.5418 Å). The CryoStream cryostat system was used to allow low-temperature

T1 sequence (Q9NZQ7 19-238 limits assumed, one chain of several): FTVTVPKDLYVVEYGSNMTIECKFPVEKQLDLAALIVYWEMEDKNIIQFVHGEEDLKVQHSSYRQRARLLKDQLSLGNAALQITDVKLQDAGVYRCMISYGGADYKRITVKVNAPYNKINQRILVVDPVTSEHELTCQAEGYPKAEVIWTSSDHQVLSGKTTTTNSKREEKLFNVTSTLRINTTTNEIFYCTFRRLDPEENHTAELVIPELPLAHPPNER
T2 sequence (Q9NZQ7 19-290): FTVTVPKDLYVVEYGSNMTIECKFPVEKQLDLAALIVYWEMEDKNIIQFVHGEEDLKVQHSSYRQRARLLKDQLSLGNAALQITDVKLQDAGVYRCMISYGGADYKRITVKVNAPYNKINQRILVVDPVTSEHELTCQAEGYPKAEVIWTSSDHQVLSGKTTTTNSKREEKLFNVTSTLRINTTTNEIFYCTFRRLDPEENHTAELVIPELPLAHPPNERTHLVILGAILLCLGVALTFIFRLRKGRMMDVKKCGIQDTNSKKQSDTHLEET

By IC50 is commonly meant the concentration needed to halve the response being measured. A low value points to inhibition by little substance. `COc1cc(-c2cccc(-c3ccc4c(c3)OCCO4)c2Cl)ccc1CN1CCCC1C(=O)O` (centres unmarked) [1a]: the IC50 in data set [1] was < 0.5 nM.
On the same count and under the same terms, the same measure for `COc1cc(-c2cccc(-c3ccc4c(c3)OCCO4)c2Cl)ccc1CN1CCCC1C(=O)NO` (centres unmarked) [1b]: > 1000 nM; for `COc1cc(-c2cccc(-c3ccc4c(c3)OCCO4)c2Cl)ccc1CN1CCCC1C(=O)NN` (centres unmarked) [1c]: 76.2 ± 2.35 nM; for `COc1cc(-c2cccc(-c3ccc4c(c3)OCCO4)c2Cl)ccc1CN1CCCC1C(=O)NN(C)C` (centres unmarked) [1d]: < 0.5 nM.
`COc1cc(-c2cccc(-c3ccc4c(c3)OCCO4)c2Cl)ccc1CN1CCCC1C(=O)NCCN` (centres unmarked) [1e]: in data set [1], the IC50 is < 0.5 nM.
`COc1cc(-c2cccc(-c3ccc4c(c3)OCCO4)c2Cl)ccc1CN1CCCC1C(=O)NCCO` (centres unmarked) [1f]: the IC50 in data set [1] is < 0.5 nM.
For `COc1cc(-c2cccc(-c3ccc4c(c3)OCCO4)c2Cl)ccc1CN1CCCC1C(=O)NC(CO)CO` (centres unmarked) [1g], in data set [1], the IC50 was < 0.5 nM.
In the case of `COc1cc(-c2cccc(-c3ccc4c(c3)OCCO4)c2Cl)ccc1CN1CCCC1C(=O)NC(CO)(CO)CO` (centres unmarked) [1h], the IC50 in data set [1] was < 0.5 nM.
For `COc1cc(-c2cccc(-c3ccc4c(c3)OCCO4)c2Cl)ccc1CN1CCC(C(=O)O)C1` (centres unmarked) [2a], in data set [1], half-maximal inhibition (IC50) was put at 1.1 ± 0.07 nM.
`COc1cc(-c2cccc(-c3ccc4c(c3)OCCO4)c2Cl)ccc1CN1CCC(C(=O)NO)C1` (centres unmarked) [2b] returned an IC50 in data set [1] of 0.94 ± 0.01 nM. For the same compound, the “activation of Jurkat-ECs (fold induction)” value in data set [2] (compound 1 μM) is reported as “bioactivity was observed”.
`COc1cc(-c2cccc(-c3ccc4c(c3)OCCO4)c2Cl)ccc1CN1CCC(C(=O)NN)C1` (centres unmarked) [2c]: in data set [1], the IC50 is < 0.5 nM.
For `COc1cc(-c2cccc(-c3ccc4c(c3)OCCO4)c2Cl)ccc1CN1CCC(C(=O)NN(C)C)C1` (centres unmarked) [2d], the IC50 in data set [1] was found to be 12 ± 2.01 nM. Besides, the “activation of Jurkat-ECs (fold induction)” value in data set [2] (compound 6.4 μM) was “activity was retained”. Also, the “dose-dependent activation of Jurkat-ECs and toxicity” value (shortened to “dose-dependent activation”) in data set [2] is “highest dose-dependent activity and lowest toxicity”.
Take `COc1cc(-c2cccc(-c3ccc4c(c3)OCCO4)c2Cl)ccc1CN1CCC(C(=O)NCCN)C1` (centres unmarked) [2e]: in data set [1], half-maximal inhibition (IC50) required 4.94 ± 0.37 nM. Besides, the “activation of Jurkat-ECs (fold induction)” value in data set [2] (compound 1 μM) is “bioactivity was observed”; in data set [2] (compound 6.4 μM, 6.4 µM) it was “T cell activation dropped down and tox”.
Turning to `COc1cc(-c2cccc(-c3ccc4c(c3)OCCO4)c2Cl)ccc1CN1CCC(C(=O)NCCO)C1` (centres unmarked) [2f], the IC50 in data set [1] was < 0.5 nM. Further, the “dose-dependent activation” value in data set [2] is “highest dose-dependent activity and lowest toxicity”.
In the case of `COc1cc(-c2cccc(-c3ccc4c(c3)OCCO4)c2Cl)ccc1CN1CCC(C(=O)NC(CO)CO)C1` (centres unmarked) [2g], the IC50 in data set [1] is < 0.5 nM. The “activation of Jurkat-ECs (fold induction)” value in data set [2] (compound 1 μM) is reported as “bioactivity was observed”; in data set [2] (compound 6.4 μM), “activity was retained”. Moreover, the “dose-dependent activation” value in data set [2] is “highest dose-dependent activity and lowest toxicity”.
For `COc1cc(-c2cccc(-c3ccc4c(c3)OCCO4)c2Cl)ccc1CN1CCC(C(=O)NC(CO)(CO)CO)C1` (centres unmarked) [2h], the IC50 in data set [1] is < 0.5 nM. In addition, the “activation of Jurkat-ECs (fold induction)” value in data set [2] (compound 1 μM) is “bioactivity was observed”; in data set [2] (compound 6.4 μM), “T cell activation dropped down”.
`COc1cc(-c2cccc(-c3ccc4c(c3)OCCO4)c2Cl)ccc1CN1CCCCC1C(=O)O` (centres unmarked) [3a] had an IC50 in data set [1] of 0.58 ± 0.05 nM.
On the same count and under the same terms, the same measure for `COc1cc(-c2cccc(-c3ccc4c(c3)OCCO4)c2Cl)ccc1CN1CCCCC1C(=O)NN` (centres unmarked) [3c]: 16.7 ± 1.63 nM; for `COc1cc(-c2cccc(-c3ccc4c(c3)OCCO4)c2Cl)ccc1CN1CCCCC1C(=O)NN(C)C` (centres unmarked) [3d]: 56 ± 1.33 nM.
On the same count and under the same terms, the same measure for `COc1cc(-c2cccc(-c3ccc4c(c3)OCCO4)c2Cl)ccc1CN1CCCCC1C(=O)NCCO` (centres unmarked) [3f]: 0.9 ± 0.05 nM.
Same read-out and setting: the same measure for `COc1cc(-c2cccc(-c3ccc4c(c3)OCCO4)c2Cl)ccc1CN1CCCCC1C(=O)NC(CO)CO` (centres unmarked) [3g]: 63.6 ± 1.86 nM.
On to `COc1cc(-c2cccc(-c3ccc4c(c3)OCCO4)c2Cl)ccc1CN1CCCCC1C(=O)NC(CO)(CO)CO` (centres unmarked) [3h], for which the IC50 in data set [1] amounted to 477 ± 83.5 nM. Compared with the last compound, the IC50 is about 7.5-fold higher.
In the case of `COc1cc(-c2cccc(-c3ccc4c(c3)OCCO4)c2Cl)ccc1CN1CCCC(C(=O)O)C1` (centres unmarked) [4a], the IC50 in data set [1] is < 0.5 nM.
The same measure, in the same setting: the value for `COc1cc(-c2cccc(-c3ccc4c(c3)OCCO4)c2Cl)ccc1CN1CCCC(C(=O)NO)C1` (centres unmarked) [4b] was 1.09 ± 0.07 nM; that for `COc1cc(-c2cccc(-c3ccc4c(c3)OCCO4)c2Cl)ccc1CN1CCCC(C(=O)NN)C1` (centres unmarked) [4c] was 79.9 ± 5.7 nM.
On the same count and under the same terms, the same measure for `COc1cc(-c2cccc(-c3ccc4c(c3)OCCO4)c2Cl)ccc1CN1CCCC(C(=O)NN(C)C)C1` (centres unmarked) [4d]: 37 ± 1.75 nM; for `COc1cc(-c2cccc(-c3ccc4c(c3)OCCO4)c2Cl)ccc1CN1CCCC(C(=O)NCCO)C1` (centres unmarked) [4f]: < 0.5 nM.
Same read-out and setting: the same measure for `COc1cc(-c2cccc(-c3ccc4c(c3)OCCO4)c2Cl)ccc1CN1CCCC(C(=O)NC(CO)(CO)CO)C1` (centres unmarked) [4h]: 19.3 ± 1.22 nM.
For the compound `COc1cc(-c2cccc(-c3ccc4c(c3)OCCO4)c2Cl)ccc1CN1CCC(C(=O)O)CC1` [5a], the IC50 in data set [1] is < 0.5 nM.
Take `COc1cc(-c2cccc(-c3ccc4c(c3)OCCO4)c2Cl)ccc1CN1CCC(C(=O)NO)CC1` [5b]: the IC50 in data set [1] was found to be 766 ± 71.5 nM.
Same read-out and setting: the same measure for `COc1cc(-c2cccc(-c3ccc4c(c3)OCCO4)c2Cl)ccc1CN1CCC(C(=O)NN)CC1` [5c]: 96.5 ± 2.71 nM; for `COc1cc(-c2cccc(-c3ccc4c(c3)OCCO4)c2Cl)ccc1CN1CCC(C(=O)NN(C)C)CC1` [5d]: < 0.5 nM.
For the compound `COc1cc(-c2cccc(-c3ccc4c(c3)OCCO4)c2Cl)ccc1CN1CCC(C(=O)NCCN)CC1` [5e], the IC50 in data set [1] was < 0.5 nM.
The same measure, in the same setting: the same measure for `COc1cc(-c2cccc(-c3ccc4c(c3)OCCO4)c2Cl)ccc1CN1CCC(C(=O)NCCO)CC1` [5f]: 0.55 ± 0.03 nM.
On the same count and under the same terms, the value for `COc1cc(-c2cccc(-c3ccc4c(c3)OCCO4)c2Cl)ccc1CN1CCC(C(=O)NC(CO)CO)CC1` [5g] was < 0.5 nM; that for `COc1cc(-c2cccc(-c3ccc4c(c3)OCCO4)c2Cl)ccc1CN1CCC(C(=O)NC(CO)(CO)CO)CC1` [5h] was < 0.5 nM.

(Values after publication PMC10788941, “Solubilizer Tag Effect on PD-L1/Inhibitor Binding Properties for m-Terphenyl Derivatives” (ACS Medicinal Chemistry Letters, 2023).)
